Test results: paper PMC6804443 (Acta Pharmaceutica Sinica. B, 2019)

What was measured:
[1] = XueBiJing compounds; cited from earlier work
UGT2B15 = target: T1, UGT2B15 (Homo sapiens, UniProt P54855); details: read-out: Km as UGT2B15 substrate; cited from earlier work
T1 sequence (P54855 24-530): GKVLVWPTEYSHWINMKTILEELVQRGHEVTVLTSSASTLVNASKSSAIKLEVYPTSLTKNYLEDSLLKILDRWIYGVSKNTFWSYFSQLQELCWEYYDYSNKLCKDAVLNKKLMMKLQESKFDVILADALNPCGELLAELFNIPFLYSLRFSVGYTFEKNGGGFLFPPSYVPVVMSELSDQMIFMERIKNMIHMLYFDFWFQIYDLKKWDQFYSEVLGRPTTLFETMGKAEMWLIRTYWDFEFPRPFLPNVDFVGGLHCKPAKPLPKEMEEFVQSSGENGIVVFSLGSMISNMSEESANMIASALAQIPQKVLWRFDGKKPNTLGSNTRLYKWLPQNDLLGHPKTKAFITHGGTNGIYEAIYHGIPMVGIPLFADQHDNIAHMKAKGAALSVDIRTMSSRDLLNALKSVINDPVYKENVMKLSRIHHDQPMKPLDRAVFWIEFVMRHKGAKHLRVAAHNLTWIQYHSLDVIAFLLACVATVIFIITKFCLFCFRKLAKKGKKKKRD

[2] = XueBiJing compounds, cited from earlier work; for LogD(7.4): pH 7.4
[3] = test system: P450 enzymes, UGTs, SULTs, OATP1B1/1B3, OAT1/3, OCT2, MATE1/2-K, MDR1, BCRP; details: cited from earlier work
[4] = cited from earlier work; for fu-p (unbound fraction in plasma): human plasma
OAT3 = target: T2, OAT3 (Homo sapiens, UniProt Q8TCC7); format: in vitro ADME
T2 sequence (Q8TCC7 1-542): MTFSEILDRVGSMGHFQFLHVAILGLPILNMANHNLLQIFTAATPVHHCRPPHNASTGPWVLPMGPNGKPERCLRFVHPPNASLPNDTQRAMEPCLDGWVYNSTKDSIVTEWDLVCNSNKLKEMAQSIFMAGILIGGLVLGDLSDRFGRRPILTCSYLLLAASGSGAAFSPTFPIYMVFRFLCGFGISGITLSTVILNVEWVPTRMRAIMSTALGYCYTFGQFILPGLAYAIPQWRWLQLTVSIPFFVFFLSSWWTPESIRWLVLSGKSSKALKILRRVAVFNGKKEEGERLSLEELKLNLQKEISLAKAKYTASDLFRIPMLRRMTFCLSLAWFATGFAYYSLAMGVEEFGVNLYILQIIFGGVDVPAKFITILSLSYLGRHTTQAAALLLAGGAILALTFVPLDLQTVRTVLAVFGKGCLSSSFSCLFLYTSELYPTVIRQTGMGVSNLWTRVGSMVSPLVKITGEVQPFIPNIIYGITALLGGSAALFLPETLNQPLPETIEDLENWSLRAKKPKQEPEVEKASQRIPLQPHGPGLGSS

[5] = ref Supporting Information Table S2; cited from earlier work
[6] = format: in vivo; details: human; XueBiJing at label dose 100 mL
CYP1A2 = details: higher concentrations; range over the named compounds and enzymes
[7] = test system: human drug metabolizing enzymes and transporters; experiment: Inhibitory DDI index of XueBiJing compounds as perpetrators; details: XueBiJing at label dose; range over the named compounds
CYP3A4 = details: higher concentrations; range over the named compounds and enzymes
[8] = human, XueBiJing 100 mL via 75-min intravenous infusion

| IC50 (OAT3) [µM] | Unbound Cmax [6] [nM] | mRNA-T/U ratio, CYP1A2 (CYP1A2) | DDI index for inhibition of CYP2C9, CYP2C19, OATP1B1, OATP1B3, OAT1 and/or OAT3 [7] | mRNA-T/U ratio, CYP3A4 (CYP3A4) | Compound | Membrane permeability [1] | Km (UGT2B15) [µM] | pKa [2] | LogD(7.4) [2] | Related metabolism and transport data (substrate status) [3] | fu-p (unbound fraction in plasma) [4] [%] | Cmax [4, 8] [nM] | VSS [4, 8] [L/kg] | t1/2 [4, 8] [min] | Major elimination route ([4]; human) | Effective concentration(s) [5] [µmol/L] |
| --- | --- | --- | --- | --- | --- | --- | --- | --- | --- | --- | --- | --- | --- | --- | --- | --- |
| – | – | – | – | – | CCC/C=C1\OC(=O)C2=C1CC[C@@H](O)[C@@H]2O [X5, senkyunolide I] | Good | 18.4 | 12.8 | 0.8 | Highly selective UGT2B15 substrate | 54 | 400 | 1.26 | 48 | Hepatic glucuronidation, to form senkyunolide I-7-O-β-glucuronide (X6) (This results in formation of a glutathione conjugate, suggesting formation of electrophilic metabolite.) | – |
| 28 ± 7 | 30 | 4.0 to 9.6 | 0.00003–0.06 | 4.0 to 9.6 | O=C(O)c1ccc(O)c(O)c1 [X11, protocatechuic acid] | Intermediate | – | 4.5 | −1.9 | – | 79 | 40 | – | 30 | Hepatic methylation and sulfation | 1 to 130 |
